Laboratory results taken from PubChem BioAssay (NCI).
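96-well plates; 48 h exposure; 5 concentrations. Endpoints by linear interpolation between flanking doses. Not reached: highest tested concentration assigned. TGI: total growth inhibition.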

What was measured:
Experiment in all cases: DTP human tumour cell line panel, 48 h
SK-MEL-28 melanoma = tested on: SK-MEL-28 melanoma
IGROV1 ovarian = tested on: IGROV1 ovarian
KM12 colon = tested on: KM12 colon
EKVX NSCLC = tested on: EKVX NSCLC
KM20L2 colon = tested on: KM20L2 colon
HCT-116 colon = tested on: HCT-116 colon
SF-268 CNS = tested on: SF-268 CNS
SK-MEL-2 melanoma = tested on: SK-MEL-2 melanoma
DMS 114 small cell lung = tested on: DMS 114 small cell lung
HOP-92 NSCLC = tested on: HOP-92 NSCLC
LXFL 529 NSCLC = tested on: LXFL 529 NSCLC
LOX IMVI melanoma = tested on: LOX IMVI melanoma
UACC-257 melanoma = tested on: UACC-257 melanoma
A549 NSCLC = tested on: A549 NSCLC
OVCAR-8 ovarian = tested on: OVCAR-8 ovarian
HOP-18 NSCLC = tested on: HOP-18 NSCLC
NCI-H23 lung = tested on: NCI-H23 lung
ACHN renal = tested on: ACHN renal
SR leukemia = tested on: SR leukemia
SN12C renal = tested on: SN12C renal
NCI-H460 lung = tested on: NCI-H460 lung
SNB-75 CNS = tested on: SNB-75 CNS
UO-31 renal = tested on: UO-31 renal
HCT-15 colon = tested on: HCT-15 colon
HT29 colon = tested on: HT29 colon
U251 CNS = tested on: U251 CNS
UACC-62 melanoma = tested on: UACC-62 melanoma
OVCAR-5 ovarian = tested on: OVCAR-5 ovarian
SK-MEL-5 melanoma = tested on: SK-MEL-5 melanoma
RXF 393 renal = tested on: RXF 393 renal
M19-MEL melanoma = tested on: M19-MEL melanoma
SW-620 colon = tested on: SW-620 colon
SNB-78 CNS = tested on: SNB-78 CNS
TK-10 renal = tested on: TK-10 renal
OVCAR-3 ovarian = tested on: OVCAR-3 ovarian
RPMI-8226 leukemia = tested on: RPMI-8226 leukemia
COLO 205 colon = tested on: COLO 205 colon
SNB-19 CNS = tested on: SNB-19 CNS
HOP-62 NSCLC = tested on: HOP-62 NSCLC
DMS 273 small cell lung = tested on: DMS 273 small cell lung
HCC-2998 colon = tested on: HCC-2998 colon
M14 melanoma = tested on: M14 melanoma
OVCAR-4 ovarian = tested on: OVCAR-4 ovarian
SF-539 CNS = tested on: SF-539 CNS
A498 renal = tested on: A498 renal
MALME-3M melanoma = tested on: MALME-3M melanoma
SF-295 CNS = tested on: SF-295 CNS
CAKI-1 renal = tested on: CAKI-1 renal
SK-OV-3 ovarian = tested on: SK-OV-3 ovarian
CCRF-CEM leukemia = tested on: CCRF-CEM leukemia
K-562 leukemia = tested on: K-562 leukemia
HL-60(TB) leukemia = tested on: HL-60(TB) leukemia
NCI-H226 lung = tested on: NCI-H226 lung
786-0 renal = tested on: 786-0 renal
DLD-1 colon = tested on: DLD-1 colon
NCI-H522 lung = tested on: NCI-H522 lung
MOLT-4 leukemia = tested on: MOLT-4 leukemia
MDA-N = tested on: MDA-N
BT-549 breast = tested on: BT-549 breast
NCI/ADR-RES ovarian = tested on: NCI/ADR-RES ovarian
MDA-MB-231 breast = tested on: MDA-MB-231 breast
DU-145 prostate = tested on: DU-145 prostate
MDA-MB-435 = tested on: MDA-MB-435
HS 578T breast = tested on: HS 578T breast
T-47D breast = tested on: T-47D breast
PC-3 prostate = tested on: PC-3 prostate
MCF7 breast = tested on: MCF7 breast

Work on `COc1ccc(-c2nnc(-c3nsc4ccccc34)o2)cc1` yielded a TGI (SK-MEL-28 melanoma) of over 100 µM, a TGI (IGROV1 ovarian) of over 100 µM and a TGI (KM12 colon) of over 100 µM. The TGI (EKVX NSCLC) was over 100 µM, the TGI (KM20L2 colon) was over 100 µM and the TGI (HCT-116 colon) was over 100 µM. It also gave a TGI (SF-268 CNS) of over 100 µM, a TGI (SK-MEL-2 melanoma) of over 100 µM and a TGI (DMS 114 small cell lung) of over 100 µM. It also gave a TGI (HOP-92 NSCLC) of over 100 µM, a TGI (LXFL 529 NSCLC) of over 100 µM and a TGI (LOX IMVI melanoma) of over 100 µM. It also gave a TGI (UACC-257 melanoma) of over 100 µM, a TGI (A549 NSCLC) of over 100 µM and a TGI (OVCAR-8 ovarian) of over 100 µM. It also gave a TGI (HOP-18 NSCLC) of over 100 µM, a TGI (NCI-H23 lung) of over 100 µM and a TGI (ACHN renal) of over 100 µM. It also gave a TGI (SR leukemia) of over 100 µM, a TGI (SN12C renal) of over 100 µM and a TGI (NCI-H460 lung) of over 100 µM. The TGI (SNB-75 CNS) was 83.4 µM, the TGI (UO-31 renal) was over 100 µM and the TGI (HCT-15 colon) was over 100 µM. It also gave a TGI (HT29 colon) of over 100 µM, a TGI (U251 CNS) of over 100 µM and a TGI (UACC-62 melanoma) of over 100 µM. The TGI (OVCAR-5 ovarian) was over 100 µM, the TGI (SK-MEL-5 melanoma) was over 100 µM and the TGI (RXF 393 renal) was 93.9 µM. The TGI (M19-MEL melanoma) was over 100 µM, the TGI (SW-620 colon) was over 100 µM and the TGI (SNB-78 CNS) was over 100 µM. It also gave a TGI (TK-10 renal) of over 100 µM, a TGI (OVCAR-3 ovarian) of 92.6 µM and a TGI (RPMI-8226 leukemia) of 71.4 µM. It also gave a TGI (COLO 205 colon) of over 100 µM, a TGI (SNB-19 CNS) of over 100 µM and a TGI (HOP-62 NSCLC) of over 100 µM. The TGI (DMS 273 small cell lung) was over 100 µM, the TGI (HCC-2998 colon) was over 100 µM and the TGI (M14 melanoma) was over 100 µM. The TGI (OVCAR-4 ovarian) was over 100 µM and the TGI (SF-539 CNS) was over 100 µM.

`CC1=CP(=O)(OC(C)C)CC(C)=C1Cl` (configuration not stated) gave a TGI (A498 renal) of over 100 µM, a TGI (SK-MEL-28 melanoma) of over 100 µM and a TGI (MALME-3M melanoma) of over 100 µM. For the same compound, the TGI (IGROV1 ovarian) was over 100 µM, the TGI (KM12 colon) was over 100 µM and the TGI (EKVX NSCLC) was over 100 µM. It also gave a TGI (KM20L2 colon) of over 100 µM, a TGI (HCT-116 colon) of over 100 µM and a TGI (SF-268 CNS) of over 100 µM. For the same compound, the TGI (SF-295 CNS) was over 100 µM, the TGI (CAKI-1 renal) was over 100 µM and the TGI (SK-MEL-2 melanoma) was over 100 µM. It also gave a TGI (DMS 114 small cell lung) of over 100 µM, a TGI (HOP-92 NSCLC) of over 100 µM and a TGI (LXFL 529 NSCLC) of over 100 µM. The TGI (LOX IMVI melanoma) was over 100 µM, the TGI (UACC-257 melanoma) was over 100 µM and the TGI (A549 NSCLC) was over 100 µM. The TGI (SK-OV-3 ovarian) was over 100 µM, the TGI (OVCAR-8 ovarian) was over 100 µM and the TGI (CCRF-CEM leukemia) was over 100 µM. For the same compound, the TGI (NCI-H23 lung) was over 100 µM, the TGI (ACHN renal) was over 100 µM and the TGI (SR leukemia) was over 100 µM. It also gave a TGI (SN12C renal) of over 100 µM, a TGI (NCI-H460 lung) of over 100 µM and a TGI (SNB-75 CNS) of over 100 µM. The TGI (K-562 leukemia) was over 100 µM, the TGI (HL-60(TB) leukemia) was over 100 µM and the TGI (NCI-H226 lung) was over 100 µM. It also gave a TGI (UO-31 renal) of over 100 µM, a TGI (786-0 renal) of over 100 µM and a TGI (HT29 colon) of over 100 µM. The TGI (U251 CNS) was over 100 µM, the TGI (UACC-62 melanoma) was over 100 µM and the TGI (OVCAR-5 ovarian) was over 100 µM. It also gave a TGI (SK-MEL-5 melanoma) of over 100 µM, a TGI (RXF 393 renal) of over 100 µM and a TGI (M19-MEL melanoma) of over 100 µM. It also gave a TGI (SW-620 colon) of over 100 µM, a TGI (SNB-78 CNS) of over 100 µM and a TGI (TK-10 renal) of over 100 µM. It also gave a TGI (DLD-1 colon) of over 100 µM, a TGI (NCI-H522 lung) of over 100 µM and a TGI (OVCAR-3 ovarian) of over 100 µM. For the same compound, the TGI (MOLT-4 leukemia) was over 100 µM, the TGI (RPMI-8226 leukemia) was over 100 µM and the TGI (COLO 205 colon) was over 100 µM. For the same compound, the TGI (SNB-19 CNS) was over 100 µM, the TGI (HOP-62 NSCLC) was over 100 µM and the TGI (DMS 273 small cell lung) was over 100 µM. It also gave a TGI (HCC-2998 colon) of over 100 µM, a TGI (M14 melanoma) of over 100 µM and a TGI (SF-539 CNS) of over 100 µM.

`COC12COC(=O)C1C(c1ccc3c(c1)OCO3)c1cc3c(cc1O2)OCO3` (configuration not stated) was tested, and the TGI (A498 renal) was over 91.8 µM, the TGI (MDA-N) was 11.7 µM and the TGI (SK-MEL-28 melanoma) was over 100 µM. The TGI (MALME-3M melanoma) was over 100 µM, the TGI (IGROV1 ovarian) was over 100 µM and the TGI (KM12 colon) was over 100 µM. It also gave a TGI (EKVX NSCLC) of over 97.4 µM, a TGI (HCT-116 colon) of over 100 µM and a TGI (SF-268 CNS) of over 100 µM. For the same compound, the TGI (SF-295 CNS) was over 100 µM, the TGI (CAKI-1 renal) was over 100 µM and the TGI (SK-MEL-2 melanoma) was over 83.8 µM. It also gave a TGI (HOP-92 NSCLC) of over 100 µM, a TGI (LOX IMVI melanoma) of over 100 µM and a TGI (BT-549 breast) of over 100 µM. It also gave a TGI (UACC-257 melanoma) of over 96.4 µM, a TGI (A549 NSCLC) of over 100 µM and a TGI (SK-OV-3 ovarian) of over 75.8 µM. The TGI (OVCAR-8 ovarian) was over 100 µM, the TGI (NCI/ADR-RES ovarian) was over 74.1 µM and the TGI (CCRF-CEM leukemia) was over 84.2 µM. It also gave a TGI (NCI-H23 lung) of over 100 µM, a TGI (MDA-MB-231 breast) of over 100 µM and a TGI (DU-145 prostate) of over 93.5 µM. For the same compound, the TGI (ACHN renal) was over 100 µM, the TGI (SR leukemia) was over 100 µM and the TGI (SN12C renal) was over 100 µM. For the same compound, the TGI (NCI-H460 lung) was over 100 µM, the TGI (SNB-75 CNS) was 59.2 µM and the TGI (K-562 leukemia) was 40.2 µM. For the same compound, the TGI (HL-60(TB) leukemia) was over 52.3 µM, the TGI (NCI-H226 lung) was over 100 µM and the TGI (UO-31 renal) was over 91.5 µM. It also gave a TGI (HCT-15 colon) of over 100 µM, a TGI (786-0 renal) of over 96.8 µM and a TGI (HT29 colon) of over 91 µM. The TGI (U251 CNS) was over 100 µM, the TGI (UACC-62 melanoma) was over 100 µM and the TGI (MDA-MB-435) was 9.13 µM. The TGI (HS 578T breast) was over 77.3 µM, the TGI (OVCAR-5 ovarian) was over 100 µM and the TGI (SK-MEL-5 melanoma) was over 100 µM. The TGI (RXF 393 renal) was 44.8 µM, the TGI (SW-620 colon) was over 100 µM and the TGI (TK-10 renal) was over 100 µM. It also gave a TGI (NCI-H522 lung) of 39.7 µM, a TGI (OVCAR-3 ovarian) of over 100 µM and a TGI (T-47D breast) of over 100 µM. It also gave a TGI (MOLT-4 leukemia) of over 87.9 µM, a TGI (RPMI-8226 leukemia) of over 87.9 µM and a TGI (COLO 205 colon) of over 93.8 µM. The TGI (SNB-19 CNS) was over 100 µM, the TGI (HOP-62 NSCLC) was 97.6 µM and the TGI (PC-3 prostate) was over 100 µM. The TGI (HCC-2998 colon) was 53.1 µM, the TGI (M14 melanoma) was over 100 µM and the TGI (OVCAR-4 ovarian) was over 100 µM. It also gave a TGI (SF-539 CNS) of 43.8 µM and a TGI (MCF7 breast) of over 100 µM.
